Assay results published in patent US12599672B2, “KRAS proteolysis targeting chimeras” (PAQ Therapeutics Inc., priority 2023, dated 2026).

Assays:
Assay type in all cases: cell-based
[1] = target: T1, KRAS (Homo sapiens, UniProt P01116); assay: KRASamp MSD assay; conditions: KE39 (KRAS amplified) cells, treated with test compounds for 24 hr, MSD readout of KRAS degradation
T1 construct: endogenous in cells; host or cells: KE39 (KRAS amplified) cells
Outline: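 Degradation DC50 derived by curve fitting, with KRAS levels quantified by MSD electrochemiluminescence (capture/detection antibodies, recombinant WT KRAS standard). Lysates prepared from KE39 cells (KRAS amplified) exposed to test compounds for 24 hr.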

[2] = target: T2, KRAS G12V (Homo sapiens, UniProt P01116, G12V); assay: KRAS G12V HiBit assay; conditions: SW620-KRAS (G12V)-HiBit-KI cells, compound treatment for 24 hours, class symbols
T2 construct: SW620-KRAS (G12V)-HiBit-KI cell (Pharmaron); host or cells: SW620-KRAS (G12V)-HiBit-KI cells (HiBiT knock-in at the endogenous KRAS locus)
T2 sequence (P01116 1-188 isoform P01116-2 G12V): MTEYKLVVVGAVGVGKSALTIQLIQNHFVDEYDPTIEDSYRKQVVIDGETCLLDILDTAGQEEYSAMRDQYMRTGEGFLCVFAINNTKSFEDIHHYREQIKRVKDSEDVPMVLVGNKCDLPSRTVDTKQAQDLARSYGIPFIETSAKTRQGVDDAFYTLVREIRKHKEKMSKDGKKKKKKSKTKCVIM
Outline: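 Luminescence from lytic Nano-Glo HiBiT detection with LgBiT read KRAS G12V levels after 24 h compound exposure. Dilutions were 10-point, 3-fold, from a 0.3 mM DMSO stock. Degradation activity was normalised to cells given 0.1% DMSO alone.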

[3] = target: T3, KRAS G12D (Homo sapiens, UniProt P01116, G12D); assay: KRAS G12D HiBit assay; conditions: AsPc-1-KRAS (G12D)-HiBit-KI cell, compound treatment for 24 hours; for DC50: absolute DC50
T3 construct: AsPc-1-KRAS (G12D)-HiBit-KI cell (Pharmaron); host or cells: AsPc-1-KRAS (G12D)-HiBit-KI cells (HiBiT knock-in at the endogenous KRAS locus)
T3 sequence (P01116 1-188 isoform P01116-2 G12D): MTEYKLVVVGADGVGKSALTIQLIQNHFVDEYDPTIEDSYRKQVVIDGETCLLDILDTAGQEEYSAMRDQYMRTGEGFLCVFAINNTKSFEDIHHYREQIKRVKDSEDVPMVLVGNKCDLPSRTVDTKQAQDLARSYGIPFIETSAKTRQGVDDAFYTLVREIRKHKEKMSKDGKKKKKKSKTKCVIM
Outline: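 HiBiT luminescence, detected by adding lytic buffer, substrate and LgBiT protein, served as the KRAS G12D read-out. Compounds, serially diluted 3-fold over 10 points from 0.3 mM DMSO stock, were on cells for 24 h; percent inhibition normalized to cells given 0.1% DMSO only.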

[4] = numeric bounds given in place of class symbols

T1 sequence (P01116 1-188 isoform P01116-2): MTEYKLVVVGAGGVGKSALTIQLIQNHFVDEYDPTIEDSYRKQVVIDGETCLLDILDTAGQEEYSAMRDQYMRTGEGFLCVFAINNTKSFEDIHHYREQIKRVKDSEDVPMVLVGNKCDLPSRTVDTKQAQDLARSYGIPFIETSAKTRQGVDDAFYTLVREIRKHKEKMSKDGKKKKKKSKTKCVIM

| SMILES | DC50 [1] | DC50 [2] | DC50 ([3]; class symbols) | DC50 [3, 4] | Dmax ([3]; class symbols) |
| --- | --- | --- | --- | --- | --- |
| CCc1c(F)ccc2cc(O)cc(-c3ncc4c(N5CCC[C@@](C)(O)C5)nc(OC[C@@]56CCCN5[C@@H](COC(=O)N5CCC(CN7CCC(c8cc9c(cc8F)n(C8CCC(=O)NC8=O)c(=O)n9C)CC7)CC5)CC6)nc4c3F)c12 (stereo partly drawn) [Compound 426, ((3R,7aS)-7a-(((7-(8-ethyl-7-fluoro-3-hydroxynaphthalen-1-yl)-8-fluoro-4-((R)-3-hydroxy-3-methylpiperidin-1-yl)pyrido[4,3-d]pyrimidin-2-yl)oxy)methyl)hexahydro-1H-pyrrolizin-3-yl)methyl 4-((4-(1-(2,6-dioxopiperidin-3-yl)-6-fluoro-3-methyl-2-oxo-2,3-dihydro-1H-benzo[d]imidazol-5-yl)piperidin-1-yl)methyl)piperidine-1-carboxylate] | < 1 nM | 10 to 100 nM | < 100 nM | – | – |
| CCc1c(F)ccc2cc(O)cc(-c3ncc4c(N5CCC[C@@](C)(O)C5)nc(OC[C@]56CCCN5[C@H](COC(=O)NC5CCN(c7cccc8c7n(C)c(=O)n8C7CCC(=O)NC7=O)CC5)CC6)nc4c3F)c12 (stereo partly drawn) [Compound 311, ((3S,7aR)-7a-(((7-(8-ethyl-7-fluoro-3-hydroxynaphthalen-1-yl)-8-fluoro-4-((R)-3-hydroxy-3-methylpiperidin-1-yl)pyrido[4,3-d]pyrimidin-2-yl)oxy)methyl)hexahydro-1H-pyrrolizin-3-yl)methyl (1-(1-(2,6-dioxopiperidin-3-yl)-3-methyl-2-oxo-2,3-dihydro-1H-benzo[d]imidazol-4-yl)piperidin-4-yl)carbamate] | ≥ 10 nM | > 100 nM | < 100 nM | – | – |
| CCc1c(F)ccc2cc(O)cc(-c3ncc4c(N5CCC[C@@H](N)C5)nc(OC[C@@]56CCCN5[C@H](COC(=O)N5CCC7(CC5)CC(N5CCC(c8ccc9c(c8)n(C)c(=O)n9C8CCC(=O)NC8=O)CC5)C7)CC6)nc4c3F)c12 (stereo partly drawn) [Compound 476, ((3S,7aS)-7a-(((4-((R)-3-aminopiperidin-1-yl)-7-(8-ethyl-7-fluoro-3-hydroxynaphthalen-1-yl)-8-fluoropyrido[4,3-d]pyrimidin-2-yl)oxy)methyl)hexahydro-1H-pyrrolizin-3-yl)methyl 2-(4-(1-(2,6-dioxopiperidin-3-yl)-3-methyl-2-oxo-2,3-dihydro-1H-benzo[d]imidazol-5-yl)piperidin-1-yl)-7-azaspiro[3.5]nonane-7-carboxylate] | 1 to 10 nM | < 10 nM | < 100 nM | – | – |
| CCc1c(F)ccc2cc(O)cc(-c3ncc4c(N5CCCCC5)nc(OC[C@@]56CCCN5[C@H](COC(=O)N5CCC7(CC5)CC(N5CCC(c8ccc9c(c8)n(C)c(=O)n9C8CCC(=O)NC8=O)CC5)C7)CC6)nc4c3F)c12 (stereo partly drawn) [Compound 367, ((3S,7aS)-7a-(((7-(8-ethyl-7-fluoro-3-hydroxynaphthalen-1-yl)-8-fluoro-4-(piperidin-1-yl)pyrido[4,3-d]pyrimidin-2-yl)oxy)methyl)hexahydro-1H-pyrrolizin-3-yl)methyl 2-(4-(1-(2,6-dioxopiperidin-3-yl)-3-methyl-2-oxo-2,3-dihydro-1H-benzo[d]imidazol-5-yl)piperidin-1-yl)-7-azaspiro[3.5]nonane-7-carboxylate] | < 1 nM | < 10 nM | < 100 nM | – | – |
| CCc1c(F)ccc2cc(O)cc(-c3ncc4c(N5CCC[C@@](C)(O)C5)nc(OC[C@@]56CCCN5[C@H](COC(=O)N5CCC7(CCC(N8CCC(c9ccc%10c(c9)n(C)c(=O)n%10C9CCC(=O)NC9=O)CC8)C7)CC5)CC6)nc4c3F)c12 (stereo partly drawn) [Compound 455, ((3S,7aS)-7a-(((7-(8-ethyl-7-fluoro-3-hydroxynaphthalen-1-yl)-8-fluoro-4-((R)-3-hydroxy-3-methylpiperidin-1-yl)pyrido[4,3-d]pyrimidin-2-yl)oxy)methyl)hexahydro-1H-pyrrolizin-3-yl)methyl 2-(4-(1-(2,6-dioxopiperidin-3-yl)-3-methyl-2-oxo-2,3-dihydro-1H-benzo[d]imidazol-5-yl)piperidin-1-yl)-8-azaspiro[4.5]decane-8-carboxylate] | < 1 nM | < 10 nM | < 100 nM | – | – |
| CCc1c(F)ccc2cc(O)cc(-c3ncc4c(N5CCC[C@H](N)C5)nc(OC[C@@]56CCCN5[C@H](COC(=O)N5CCC7(CC5)CC(N5CCC(c8ccc9c(c8)n(C)c(=O)n9C8CCC(=O)NC8=O)CC5)C7)CC6)nc4c3F)c12 (stereo partly drawn) [Compound 477, ((3S,7aS)-7a-(((4-((S)-3-aminopiperidin-1-yl)-7-(8-ethyl-7-fluoro-3-hydroxynaphthalen-1-yl)-8-fluoropyrido[4,3-d]pyrimidin-2-yl)oxy)methyl)hexahydro-1H-pyrrolizin-3-yl)methyl 2-(4-(1-(2,6-dioxopiperidin-3-yl)-3-methyl-2-oxo-2,3-dihydro-1H-benzo[d]imidazol-5-yl)piperidin-1-yl)-7-azaspiro[3.5]nonane-7-carboxylate] | ≥ 10 nM | > 100 nM | – | > 100 nM | – |
| CCc1c(F)ccc2cc(O)cc(-c3ncc4c(N5CCC[C@@](C)(O)C5)nc(OC[C@@]56CCCN5[C@H](COC(=O)N5CCC(CN7CCC(c8ccc9c(C%10CCC(=O)NC%10=O)nn(C)c9c8)CC7)CC5)CC6)nc4c3F)c12 (stereo partly drawn) [Compound 99, [(3S,8S)-8-[[7-(8-ethyl-7-fluoro-3-hydroxy-1-naphthyl)-8-fluoro-4-[(3R)-3-hydroxy-3-methyl-1-piperidyl]pyrido[4,3-d]pyrimidin-2-yl]oxymethyl]-1,2,3,5,6,7-hexahydropyrrolizin-3-yl]methyl 4-[[4-[3-(2,6-dioxo-3-piperidyl)-1-methyl-indazol-6-yl]-1-piperidyl]methyl]piperidine-1-carboxylate] | < 1 nM | < 10 nM | < 100 nM | – | > 50% |
| CCc1c(F)ccc2cc(O)cc(-c3ncc4c(N5CCC[C@@](C)(O)C5)nc(OC[C@]56CCCN5[C@H](COC(=O)N5CCC(Oc7ccc8c(c7)n(C)c(=O)n8C7CCC(=O)NC7=O)CC5)CC6)nc4c3F)c12 (stereo partly drawn) [Compound 330, ((3S,7aR)-7a-(((7-(8-ethyl-7-fluoro-3-hydroxynaphthalen-1-yl)-8-fluoro-4-((R)-3-hydroxy-3-methylpiperidin-1-yl)pyrido[4,3-d]pyrimidin-2-yl)oxy)methyl)hexahydro-1H-pyrrolizin-3-yl)methyl 4-((1-(2,6-dioxopiperidin-3-yl)-3-methyl-2-oxo-2,3-dihydro-1H-benzo[d]imidazol-5-yl)oxy)piperidine-1-carboxylate] | 1 to 10 nM | > 100 nM | – | > 100 nM | – |
| C#Cc1c(F)ccc2cc(O)cc(-c3ncc4c(N5CCC[C@@](C)(O)C5)nc(OC[C@@]56CCCN5[C@H](COC(=O)N5CCC7(CC5)CCN7C5CCN(c7ccc8c(c7)n(C)c(=O)n8C7CCC(=O)NC7=O)CC5)CC6)nc4c3F)c12 (stereo partly drawn) [Compound 320, ((3S,7aS)-7a-(((7-(8-ethynyl-7-fluoro-3-hydroxynaphthalen-1-yl)-8-fluoro-4-((R)-3-hydroxy-3-methylpiperidin-1-yl)pyrido[4,3-d]pyrimidin-2-yl)oxy)methyl)hexahydro-1H-pyrrolizin-3-yl)methyl 1-(1-(1-(2,6-dioxopiperidin-3-yl)-3-methyl-2-oxo-2,3-dihydro-1H-benzo[d]imidazol-5-yl)piperidin-4-yl)-1,7-diazaspiro[3.5]nonane-7-carboxylate] | ≥ 10 nM | > 100 nM | – | > 100 nM | – |
| C#Cc1c(F)ccc2cc(O)cc(-c3ncc4c(N5CCC[C@@](C)(O)C5)nc(OCC5(CN6CCN(CC7CCN(c8ccc9c(c8)n(C)c(=O)n9C8CCC(=O)NC8=O)CC7)CC6)CC5)nc4c3F)c12 (stereo partly drawn) [Compound 14, 3-[5-[4-[[4-[[1-[[7-(8-Ethynyl-7-fluoro-3-hydroxy-1-naphthyl)-8-fluoro-4-[(3R)-3-hydroxy-3-methyl-1-piperidyl]pyrido[4,3-d]pyrimidin-2-yl]oxymethyl]cyclopropyl]methyl]piperazin-1-yl]methyl]-1-piperidyl]-3-methyl-2-oxo-benzimidazol-1-yl]piperidine-2,6-dione] | < 1 nM | < 10 nM | < 100 nM | – | > 50% |
| CCc1c(F)ccc2cc(O)cc(-c3ncc4c(N5CCC[C@@](C)(O)C5)nc(OC[C@@]56CCCN5[C@H](COC(=O)N5C7CCC5CC(CN5CCC(c8ccc9c(c8)n(C)c(=O)n9C8CCC(=O)NC8=O)CC5)C7)CC6)nc4c3F)c12 (stereo partly drawn) [Compound 392, ((3S,7aS)-7a-(((7-(8-ethyl-7-fluoro-3-hydroxynaphthalen-1-yl)-8-fluoro-4-((R)-3-hydroxy-3-methylpiperidin-1-yl)pyrido[4,3-d]pyrimidin-2-yl)oxy)methyl)hexahydro-1H-pyrrolizin-3-yl)methyl 3-((4-(1-(2,6-dioxopiperidin-3-yl)-3-methyl-2-oxo-2,3-dihydro-1H-benzo[d]imidazol-5-yl)piperidin-1-yl)methyl)-8-azabicyclo[3.2.1]octane-8-carboxylate] | < 1 nM | < 10 nM | < 100 nM | – | – |
